Source: patent publication US20160223554A1, “METHODS FOR DIAGNOSIS, PROGNOSIS AND METHODS OF TREATMENT” (priority 2011, published 2016)
Residues, ends and D or L forms follow the SMILES beside them. *: point of attachment. Cbz = O=C(OCc1ccccc1)*; CH2F = FC*

Legend:
AML blasts = assay: SCNP functional apoptosis and DNA damage response assay in AML PBMC (Examples 2, 6, 8, 10); type: cell-based, human; details: with staurosporine or etoposide
Description: A viable cell will be Aqua negative and PARP negative and a measure of cell death is PARP and/or Aqua positivity.
“Apoptosis”=% of PARP^−Aqua^−unstim−% of PARP^−Aqua^−Drug.
Functional assays were performed as previously described. See Irish, et al., Cell 2004; 118:217-228.
The median fluorescence intensity (MFI) was computed for each node from the fluorescence intensity levels for the cells in the myeloid population. The MFI values were then used to compute a variety of metrics by comparing them to baseline or background values, including the unmodulated condition, cellular autofluorescence and antibody isotype controls. The following metrics were computed: • 1. Basal MFI (“Basal”)=log2(MFIUnmodulated Stained)−log2(MFIGated Unstained (Autofluoresence)), designed to measure the basal levels of a certain protein under unmodulated conditions. • 2. Fold Change MFI (“Fold”)=log2(MFIModulated Stained)−log2(MFIUnmodulated Stained), a measure of the change in the activation state of a protein under modulated conditions. • 3. Total Phospho MFI (“TotalPhospho”)=log2(MFIModulated Stained)−log2(MFIGated Unstained (Autofluorescence)), a measure of the total levels of a protein under modulated conditions. • 4. Relative Protein Expression (“Rel. Expression”)=log2(MFIstain)−log2(MFIControl), a measure of the levels of surface marker staining relative to control antibody staining • 5. […]

AML leukemic cells = assay: Apotosis/Cytostasis Arm with kinase inhibitors (Example 13); type: cell-based, human; details: two samples with greatest SCF and G-CSF signaling response; 1 μM; 48-hr incubation
Text: All results were compared with results from bone marrow samples from healthy donors (N=6).

| Compound | effect of co-incubation with pan-Caspase inhibitor on Cleaved Caspase-3 and PARP (AML blasts; samples 0341, 0521) | effect of co-incubation with pan-Caspase inhibitor on PARP cleavage (AML blasts; samples 8303, 8402) | sensitivity to kinase inhibitor, cytostasis readouts (AML leukemic cells) |
| --- | --- | --- | --- |
| COC(=O)CC(NC(=O)C(C)NC(=O)C(NC(=O)OCc1ccccc1)C(C)C)C(=O)CF (stereo not drawn) [Z-VAD, Benzyloxycarbonyl-Val-Ala-Asp (OMe) fluoromethylketone] (Cbz-Val-Ala-Asp(OMe)-CH2F; configuration not given here) | inhibited cleavage of caspase 3 and PARP to near completion | only partially inhibited |  |
| C[C@@H]1CCN(C(=O)CC#N)C[C@@H]1N(C)c1ncnc2[nH]ccc12 [CP-690,550] |  |  | most sensitive |
